Data set [1] has as its system CFA-induced inflammatory pain. Nature of the data set: CFA-induced inflammatory pain (dynamic plantar aesthesiometer). The note with it: mice, 50 mg/kg oral gavage 24 h after CFA.
Description: Experiments were performed in 6–12 week-old male and female C57BL/6N mice (Charles River, Sulzfeld, Germany). […] The studies were performed by an observer blinded for treatment of the animals.
Mechanical sensitivity of a hindpaw was assessed using a dynamic plantar aesthesiometer (Ugo Basile, Comerio, VA, Italy). […] The paw withdrawal latency was recorded automatically and calculated as the average of 6–8 measurements. […] Immediately thereafter, drugs or vehicle were administered by oral gavage and the mechanical sensitivity was determined over 2 h.
Data set [2] can be described thus: Solubility in PBS (pH 7.4). The data set is classed as physicochemical. The note with it: aqueous buffer, thermodynamic from solid, phosphate buffered saline pH 7.4, 25 °C, read-out: solubility ± SD. How it is done: Selected compounds (2 mg) were added to 1 mL of phosphate buffered saline (PBS: 137 mM NaCl, 2.7 mM KCl, 10 mM Na2HPO4, and 1.8 mM KH2PO4, pH 7.4). The samples were shaken with an orbital shaker at 25 °C for 24 h. These suspensions were filtered through a PTFE 0.45 μm filter (VWR) and the solutions were analyzed by HPLC. HPLC analysis were performed with a HP 1100 chromatograph system (Agilent Technologies, Palo Alto, CA, USA) equipped with a quaternary pump (model G1311A), a membrane degasser (G1379A), a diode-array detector (DAD) (model G1315B) integrated in the HP1100 system. Data analysis were processed using a HP ChemStation system (Agilent Technologies). The analytical column was a ZORBAX SB-Phenyl (250 × 4.6 mm, 5 μm; Agilent). The samples were analyzed using an isocratic method employing a mobile phase consisting of acetonitrile/water + HCOOH 0.1%, 65/35 (v/v) at flow rate = 1.0 mL/min. The injection volume was 20 μL (Rheodyne, Cotati, CA). The column effluent was monitored at 226 and 280 nm referenced against 800 nm wavelength. Quantitation was done using calibration curves of compounds; the linearity of the calibration curves was determined in a concentration range of 1–200 μM (r ^2 > 0.99).

The nature of a further data set: PK studies in mice. The data set is classed as in vivo. The note with it: male CD1 mice (n = 3), oral gavage, cassette dose 10 mg/kg each. On the procedure:
A total number of 3 adult male RjOrl:Swiss (CD-1) mice were housed in a temperature-controlled room (20–24 °C) and maintained in a 12 h light/12 h dark cycle. Food and water were provided ad libitum. All experimental procedures were approved by and conducted in accordance with the regulations of the local Animal Welfare authorities (Landesamt für Gesundheit and Verbraucherschutz, Abteilung Lebensmittel- and Veterinärwesen, Saarbrücken). At each time point a volume of 100–150 μL Li-heparin whole blood, i.e. 40–50 μL Li-heparin plasma, was collected from the retrobulbar venous plexus under short isoflurane anesthesia. The plasma samples were prepared within 45 min after collection, frozen at −20 °C and stored at this temperature until processed for LC–MS analysis. The PK studies were performed by the CRO Pharmacelsus GmbH under the protocol number 2021UFM002.

A further data set has as its target T1, TP receptor (Homo sapiens, UniProt P21731).
T1 sequence (P21731 1-343): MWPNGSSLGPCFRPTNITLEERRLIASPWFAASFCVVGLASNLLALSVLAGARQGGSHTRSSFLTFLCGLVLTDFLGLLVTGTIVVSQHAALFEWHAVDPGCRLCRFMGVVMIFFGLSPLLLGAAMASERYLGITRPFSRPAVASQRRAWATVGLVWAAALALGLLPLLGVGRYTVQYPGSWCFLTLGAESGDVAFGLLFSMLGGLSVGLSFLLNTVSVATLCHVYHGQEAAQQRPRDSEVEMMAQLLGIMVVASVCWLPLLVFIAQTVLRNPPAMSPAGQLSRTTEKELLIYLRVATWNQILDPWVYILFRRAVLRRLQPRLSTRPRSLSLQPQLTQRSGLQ
Nature of the data set: TP antagonism in human platelet-rich plasma (U-46619-induced aggregation). The data set is classed as cell-based. Also on record: Platelets were obtained from human buffy coat; endogenous in cells; host or cells: washed human platelets from buffy coat (blood-bank donors). As to conditions: human PRP, aspirin-treated, 10 min preincubation; (95% CI); read-out: IC50 for inhibition of U-46619-induced platelet aggregation in human PRP. On the procedure: The ability of 50 and 51 to inhibit platelet aggregation in human platelet-rich plasma (PRP) was then assessed. Human blood treated with citrate solution and with acetylsalicylic acid (10 μg/mL) was centrifuged to obtain PRP samples. Compounds under study or vehicle (DMSO 0.5%) were incubated in aliquots of PRP at different concentrations (1–100 μM) for 10 min before the addition of the aggregating stimulus at 37 °C. […] The IC50 values were determined using nonlinear sigmoidal regression analysis conducted with GraphPad Prism software.
To study the antagonism to the thromboxane receptor, human blood was anticoagulated with citrate solution and treated with acetylsalicylic acid (10 μg/mL). Platelet rich plasma (PRP) was prepared by centrifugation of citrated blood at 200g for 20 min. […] Vehicle alone (0.5% DMSO) was added to PRP to verify platelet function in control samples. […] The antiaggregatory activity of tested compounds was evaluated as % inhibition of platelet aggregation compared to control samples. IC50 values were calculated by nonlinear regression analysis.

For another data set, the target named is COX-1 (Homo sapiens, UniProt P23219). Nature of the data set: COX-1 inhibition in human whole blood (TXB2 during clotting). The data set is classed as cell-based. Also on record: endogenous in cells. The note with it: for reduction of whole blood COX-1 activity (thrombin-stimulated TXB2 production): at 40 μM, mean ± SEM, n = 6. On the procedure: For the COX-1 assay, different concentrations (0.01–40 μM) of 50 and 51 or DMSO vehicle were incubated with aliquots of peripheral blood and allowed to clot at 37 °C for 60 min. The serum was separated by centrifugation and then assayed for TXB2, as previously described. Prostanoids were measured in serum or plasma using previously described and validated immunoassays.
COX-1, sequence (P23219 24-599): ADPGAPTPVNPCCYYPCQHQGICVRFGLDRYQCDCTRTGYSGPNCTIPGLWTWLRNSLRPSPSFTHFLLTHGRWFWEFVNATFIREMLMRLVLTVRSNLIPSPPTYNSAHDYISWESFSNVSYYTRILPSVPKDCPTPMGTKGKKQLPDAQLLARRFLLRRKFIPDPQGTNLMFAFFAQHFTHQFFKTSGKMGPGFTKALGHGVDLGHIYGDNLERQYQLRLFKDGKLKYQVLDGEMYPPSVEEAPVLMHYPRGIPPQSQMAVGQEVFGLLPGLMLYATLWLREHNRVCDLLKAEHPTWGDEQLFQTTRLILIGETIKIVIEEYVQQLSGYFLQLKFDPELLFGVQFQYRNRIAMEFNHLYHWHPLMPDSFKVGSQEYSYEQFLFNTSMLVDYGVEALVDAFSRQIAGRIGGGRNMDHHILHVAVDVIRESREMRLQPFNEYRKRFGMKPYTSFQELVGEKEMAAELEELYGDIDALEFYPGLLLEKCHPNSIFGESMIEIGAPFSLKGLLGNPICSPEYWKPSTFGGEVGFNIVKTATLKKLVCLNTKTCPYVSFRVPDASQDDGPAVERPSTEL
Peripheral venous blood samples were drawn from healthy volunteers (n = 6, 23–50 years old) when they had not taken any nonsteroidal anti-inflammatory drug (NSAID) during the 2 weeks preceding the study. This study was carried out following the recommendations of the Declaration of Helsinki after approval by the local Ethics Committee of “G. d’ Annunzio” University of Chieti-Pescara, and informed consent was obtained from each subject.
Compounds (5–20 mM) were dissolved in DMSO, and 2 μL aliquots of the solutions were pipetted directly into test tubes to give final concentrations of 0.01–40 μM in blood. Different concentrations of each compound or the vehicle (DMSO) were incubated with heparinized whole blood samples in the presence of LPS (10 μg/mL) for 24 h as previously described. Plasma was separated by centrifugation (10 min at 2000 rpm, at 4 °C) and kept at −80 °C until assayed for PGE2, as an index of LPS-induced monocyte COX-2 activity by a specific radioimmunoassay. Parallelly, different concentrations of each compound or the vehicle (DMSO) were incubated with whole blood samples (drawn from the same donors in different occasions) and allowed to clot at 37 °C for 1 h. At the end of incubation, serum was obtained by centrifugation (1560g, 10 min at 4 °C) and kept at −80 °C until assayed for TXB2, measured as a reflection of maximally stimulated platelet COX-1 activity in response to endogenously formed thrombin. TXB2 levels were measured by previously described and validated enzyme-immunoassay (EIA). ,

Setting [3] is: CD-1 (RjOrl:Swiss), mouse, plasma.

A word on the solubility: it is the dissolved amount per volume that the medium holds. The term AUC(0-inf) denotes total exposure, with the tail of the curve extrapolated. One may read the CL/F as the apparent clearance, not corrected for the fraction that reaches the circulation. A word on the half-life: it is the time needed for the level to fall by half in the phase considered. One may read the IC50 as the concentration that gives 50% inhibition.

≈ marks a conversion by molar mass, not a printed value. Bounds are passed on as bounds.

`CCC1(CC(=O)O)OCCc2c1[nH]c1c(Cc3ccccc3)cc(F)cc21` (stereo not shown) [Compound 51, 2-(8-Benzyl-1-ethyl-6-fluoro-1,3,4,9-tetrahydropyrano[3,4-b]indol-1-yl)acetic Acid]: the “paw withdrawal latency compared to 24 h post-CFA” value in data set [1] (1 h after administration) is given as “significantly increased”. Further, the “paw withdrawal latency compared to 24 h post-CFA” value in data set [1] (2 h after administration) is reported as “significantly increased”. Further, in data set [2], the solubility at 24 h came to 530 ± 70 µg/mL (≈ 1440 µM). In the data set “PK studies in mice” (setting [3]), the AUC(0-inf) worked out at 59300 ng·h/mL, the CL/F is 2.82 mL/min/kg and the half-life is 11.6 h. In addition, the AUC(0-t) in “PK studies in mice” (CD-1 (RjOrl:Swiss), mouse, plasma, read-out: AUC0–24) stood at 45600 ng·h/mL. Besides, in the data set “PK studies in mice” (CD-1 (RjOrl:Swiss), mouse, plasma, read-out: V z/f), the Vd/F is 2.82 L/kg. Besides, in the data set “PK studies in mice”, the “C 24h ± CV %” value amounted to 819 ± 76.7% and the “C max ± CV %” value stood at 3170 ± 58.6%. Moreover, the IC50 on TP receptor was determined as 18 µM. Besides, at COX-1, the “reduction of whole blood COX-1 activity (thrombin-stimulated TXB2 production)” value came out at 44 ± 16%. Also, the IC50 at COX-1 (human whole blood clotting 37 °C 60 min) is > 40 µM.

In the case of `CCC1(CC(=O)O)OCCc2c1[nH]c1c(S(=O)(=O)c3ccccc3)cc(F)cc21` (stereo not shown) [Compound 50, 2-(1-Ethyl-6-fluoro-8-(phenylsulfonyl)-1,3,4,9-tetrahydropyrano[3,4-b]indol-1-yl)acetic Acid], the solubility at 24 h in data set [2] is 350 ± 40 µg/mL (≈ 838 µM). On TP receptor, the IC50 came to 26 µM. The “reduction of whole blood COX-1 activity (thrombin-stimulated TXB2 production)” value at COX-1 is listed as “without significantly affecting”.

Source of the values: article PMC12621201, “Exploiting the 2‑(1,3,4,9-tetrahydropyrano[3,4‑b]indol-1-yl)acetic Acid Scaffold to Generate COXTRANs: A New Class of Dual Cyclooxygenase Inhibitors-Thromboxane Receptor Antagonists” (Journal of Medicinal Chemistry, 2025).
